The nature of the assay: flavor descriptors of compounds tasted in salt water, chicken broth, IMP/MSG and NaCl/IMP/MSG solutions.

The source of these data is US20100034944A1, “Use of Avocado Derivatives in Flavor Applications” (priority 2008, published 2010).

On to `C#CCCCCCCCCCCCC(O)CC(O)COC(C)=O` (stereo not drawn) [2,4-Dihydroxy-16-heptadecyn-1-yl acetate, 2,4-dihydroxy-16-heptadecyn-1-yl acetate], for which, under “compound 10 ppm in chicken broth”, the “flavor descriptors, Chicken Broth College Inn 50% reduced Na; Fat free” value was “Bitter”.

For the compound `C=CCCCCCCCCCCCC(O)CC(O)COC(C)=O` (stereo not drawn) [2,4-dihydroxy-16-heptadecen-1-yl acetate], the “flavor descriptors, NaCl 0.1% IMP 0.00359 g/L / MSG 0.0508 g/L” value (compound 10 ppm in NaCl/IMP/MSG solution) was “Very umami”. Moreover, the “flavor descriptors, IMP 0.00359 g/L / MSG 0.0508 g/L” value (compound 20 ppm in IMP/MSG solution) is reported as “Nice umami”.
